Measurements reported in ChEMBL document CHEMBL1127541, “3,4-Dihydro-3-amino-2H-1-benzopyran derivatives as 5-HT1A receptor ligands and potential anxiolytic agents. 1. Synthesis and structure--activity relationship studies” (J Med Chem, 1994).

Assays:
[1] = molecular target: T1, 5-hydroxytryptamine receptor 1A (Rattus norvegicus, UniProt P19327); test: Binding affinity against 5-hydroxytryptamine 1A (5-HT1A) receptor in rat hippocampus membranes; format: cell membranes, Membrane
T1 sequence (P19327 whole entry): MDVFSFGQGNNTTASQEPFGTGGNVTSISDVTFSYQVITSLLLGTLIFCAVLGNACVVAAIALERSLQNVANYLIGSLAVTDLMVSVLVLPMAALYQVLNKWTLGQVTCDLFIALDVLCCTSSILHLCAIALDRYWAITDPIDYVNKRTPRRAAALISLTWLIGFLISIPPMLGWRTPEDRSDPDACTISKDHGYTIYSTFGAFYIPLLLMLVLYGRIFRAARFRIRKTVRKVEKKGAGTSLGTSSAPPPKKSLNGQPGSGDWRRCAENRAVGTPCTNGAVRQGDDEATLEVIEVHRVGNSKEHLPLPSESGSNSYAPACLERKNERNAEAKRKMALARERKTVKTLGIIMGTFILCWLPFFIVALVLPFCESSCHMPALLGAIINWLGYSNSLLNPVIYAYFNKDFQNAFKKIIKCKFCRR

[2] = molecular target: 5-hydroxytryptamine receptor 1B (Rattus norvegicus, UniProt P28564); test: Binding affinity for 5-hydroxytryptamine 1B receptor in rat cortex, striatum and globus pallidus; format: tissue-based
[3] = molecular target: 5-hydroxytryptamine receptor 2A (Bos taurus, UniProt Q75Z89); test: Binding affinity towards 5-hydroxytryptamine 2 receptor in calf frontal cortex; format: tissue-based
[4] = molecular target: T2, Alpha-2A adrenergic receptor (Bos taurus, UniProt Q28838); test: Binding affinity against alpha-2 adrenergic receptor in calf frontal cortex; format: tissue-based
T2 sequence (Q28838 whole entry): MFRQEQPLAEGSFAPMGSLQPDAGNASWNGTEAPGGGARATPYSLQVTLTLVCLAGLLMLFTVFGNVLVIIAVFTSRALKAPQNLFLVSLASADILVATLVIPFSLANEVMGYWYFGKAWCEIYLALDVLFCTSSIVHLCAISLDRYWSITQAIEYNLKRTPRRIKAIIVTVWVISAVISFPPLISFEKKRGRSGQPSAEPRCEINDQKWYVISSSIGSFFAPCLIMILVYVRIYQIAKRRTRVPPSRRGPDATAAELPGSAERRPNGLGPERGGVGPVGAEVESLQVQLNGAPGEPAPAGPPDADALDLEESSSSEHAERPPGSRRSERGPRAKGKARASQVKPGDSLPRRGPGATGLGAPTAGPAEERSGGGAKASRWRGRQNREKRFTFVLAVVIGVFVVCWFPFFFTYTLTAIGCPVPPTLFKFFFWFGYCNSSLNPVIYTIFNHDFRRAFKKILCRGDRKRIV

[5] = molecular target: T3, Alpha-1A adrenergic receptor (Bos taurus, UniProt P18130); test: Binding affinity against alpha-1 adrenergic receptor in calf frontal cortex; format: tissue-based
T3 sequence (P18130 whole entry): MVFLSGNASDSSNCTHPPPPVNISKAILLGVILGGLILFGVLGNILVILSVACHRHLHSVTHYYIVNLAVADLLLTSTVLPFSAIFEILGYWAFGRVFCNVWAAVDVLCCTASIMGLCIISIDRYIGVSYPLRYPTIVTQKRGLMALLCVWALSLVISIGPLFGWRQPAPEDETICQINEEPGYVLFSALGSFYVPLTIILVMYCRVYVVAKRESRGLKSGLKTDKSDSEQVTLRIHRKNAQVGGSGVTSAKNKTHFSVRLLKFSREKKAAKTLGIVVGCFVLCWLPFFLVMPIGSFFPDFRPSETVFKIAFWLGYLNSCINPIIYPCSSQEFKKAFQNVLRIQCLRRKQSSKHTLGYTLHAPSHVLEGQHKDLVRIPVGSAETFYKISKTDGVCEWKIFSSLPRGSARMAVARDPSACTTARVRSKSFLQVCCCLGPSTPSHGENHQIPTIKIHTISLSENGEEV

D(2) dopamine receptor = D(2) dopamine receptor (Bos taurus, UniProt P20288); test: Binding affinity against D2 receptor in calf caudate nucleus
D(1A) dopamine receptor = D(1A) dopamine receptor (Bos taurus, UniProt Q95136); test: Binding affinity towards dopamine receptor D1 in calf striatum; format: tissue-based
Chain of D(1A) dopamine receptor (Q95136 whole entry): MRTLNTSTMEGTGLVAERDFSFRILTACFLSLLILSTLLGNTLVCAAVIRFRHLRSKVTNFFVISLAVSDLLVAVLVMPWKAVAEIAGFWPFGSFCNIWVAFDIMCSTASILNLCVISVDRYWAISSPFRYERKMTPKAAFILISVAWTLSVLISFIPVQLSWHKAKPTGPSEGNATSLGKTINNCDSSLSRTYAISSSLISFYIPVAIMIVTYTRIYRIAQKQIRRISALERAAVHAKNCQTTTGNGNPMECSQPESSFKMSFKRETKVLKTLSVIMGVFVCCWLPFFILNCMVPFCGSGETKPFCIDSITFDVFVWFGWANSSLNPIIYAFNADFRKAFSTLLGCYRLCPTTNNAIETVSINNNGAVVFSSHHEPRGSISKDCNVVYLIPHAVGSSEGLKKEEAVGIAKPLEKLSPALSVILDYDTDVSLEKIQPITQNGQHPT

Chain of D(2) dopamine receptor (P20288 whole entry): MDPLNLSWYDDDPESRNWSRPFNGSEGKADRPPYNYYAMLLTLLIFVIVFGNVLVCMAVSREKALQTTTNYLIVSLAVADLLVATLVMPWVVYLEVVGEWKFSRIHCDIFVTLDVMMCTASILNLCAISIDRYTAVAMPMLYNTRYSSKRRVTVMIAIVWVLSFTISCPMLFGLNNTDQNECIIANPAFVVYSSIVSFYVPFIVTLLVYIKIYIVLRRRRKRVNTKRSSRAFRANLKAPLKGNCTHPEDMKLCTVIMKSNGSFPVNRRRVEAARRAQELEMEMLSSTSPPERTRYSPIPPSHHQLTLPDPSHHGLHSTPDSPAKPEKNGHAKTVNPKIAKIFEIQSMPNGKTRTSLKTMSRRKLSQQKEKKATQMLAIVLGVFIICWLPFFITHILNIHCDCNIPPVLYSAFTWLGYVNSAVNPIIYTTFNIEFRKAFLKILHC
Chain of 5-hydroxytryptamine receptor 1B (P28564 whole entry): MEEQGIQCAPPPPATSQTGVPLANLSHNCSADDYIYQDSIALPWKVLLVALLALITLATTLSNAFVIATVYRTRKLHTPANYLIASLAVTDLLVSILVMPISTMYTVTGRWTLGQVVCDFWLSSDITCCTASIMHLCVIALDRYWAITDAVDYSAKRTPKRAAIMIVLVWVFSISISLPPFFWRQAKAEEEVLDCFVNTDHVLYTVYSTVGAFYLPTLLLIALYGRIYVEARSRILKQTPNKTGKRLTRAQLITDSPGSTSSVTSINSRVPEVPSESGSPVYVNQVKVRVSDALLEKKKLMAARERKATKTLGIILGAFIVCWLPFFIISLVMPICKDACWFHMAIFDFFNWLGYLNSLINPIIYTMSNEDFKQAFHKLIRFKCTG
Chain of 5-hydroxytryptamine receptor 2A (Q75Z89 whole entry): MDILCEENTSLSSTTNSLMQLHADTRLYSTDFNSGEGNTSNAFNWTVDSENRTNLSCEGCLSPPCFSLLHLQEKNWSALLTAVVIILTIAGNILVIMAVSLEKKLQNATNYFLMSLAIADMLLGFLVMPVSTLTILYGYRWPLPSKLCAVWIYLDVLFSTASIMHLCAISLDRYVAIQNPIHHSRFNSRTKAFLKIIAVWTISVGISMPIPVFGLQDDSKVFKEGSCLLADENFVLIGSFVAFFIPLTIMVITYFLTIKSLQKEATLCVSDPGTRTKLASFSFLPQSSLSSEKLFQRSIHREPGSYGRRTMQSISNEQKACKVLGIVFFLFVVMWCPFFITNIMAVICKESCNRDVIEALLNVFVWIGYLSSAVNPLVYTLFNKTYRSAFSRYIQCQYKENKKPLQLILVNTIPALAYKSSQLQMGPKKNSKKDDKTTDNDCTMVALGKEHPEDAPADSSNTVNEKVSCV

SMILES	IC50 [1]	IC50 [2]	IC50 [3]	IC50 [4]	IC50 [5]	IC50 (D(2) dopamine receptor)	IC50 (D(1A) dopamine receptor)
CCCN(CCCCNS(=O)(=O)c1ccc(C)cc1)C1COc2cccc(OC)c2C1 (stereo in doubt; 15d)	0.002 µM	8 µM	10 µM	10 µM	3 µM	0.2 µM	30 µM
CCCN(CCCCN1C(=O)CC2(CCCC2)CC1=O)C1COc2ccccc2C1 (centres undefined)	0.002 µM	30 µM	2 µM	10 µM	7 µM	0.004 µM	40 µM
CCCN(CCCCn1c(=O)oc2cccnc21)C1COc2cccc(OC)c2C1 (centres undefined)	0.005 µM	1 µM	6 µM	5 µM	3 µM	0.1 µM	30 µM
CCCN(CCCCN1C(=O)C2CCCC2C1=O)C1COc2cccc(OC)c2C1 (stereo in doubt; 9k)	0.002 µM	20 µM	9 µM	5 µM	7 µM	0.02 µM	40 µM
CCCN(CCNC(C)=O)C1COc2cccc(OC)c2C1 (centres undefined)	0.04 µM	60 µM	> 1000 µM	10 µM	> 1000 µM	0.6 µM	> 1000 µM
CCCN(CCC)C1COc2cccc(OC)c2C1 (stereo in doubt; 4)	0.02 µM	20 µM	60 µM	4 µM	80 µM	0.05 µM	100 µM
CCCN(CCC)C1COc2cccc(O)c2C1 (centres undefined)	0.004 µM	> 100 µM	> 100 µM	2 µM	100 µM	0.4 µM	100 µM
O=C1c2ccccc2S(=O)(=O)N1CCCCN1CCN(c2ncccn2)CC1 [IPSAPIRONE]	0.035 µM	50 µM	7.5 µM	2.8 µM	1.2 µM	> 1000 µM	12 µM
CCCN(CCC)C1COc2ccccc2C1 (centres undefined)	0.4 µM	> 1000 µM	80 µM	20 µM	> 1000 µM	0.06 µM	> 1000 µM
COc1cccc2c1CC(N1CCCC1)CO2 (centres undefined)	0.007 µM	100 µM	60 µM	3 µM	40 µM	2.5 µM	1000 µM
CCCN(CCN1C(=O)CC2(CCCC2)CC1=O)C1COc2cccc(OC)c2C1 (centres undefined)	0.03 µM	> 1000 µM	> 1000 µM	> 1000 µM	> 1000 µM	3 µM	> 1000 µM
CCCN(CCC)C1COc2cccc(OC)c2C1 (stereo in doubt; (-)-4)	0.001 µM	1 µM	4 µM	0.78 µM	3.5 µM	0.21 µM	> 1000 µM
CCCN(CCCCN1C(=O)c2ccccc2S1(=O)=O)C1COc2cccc(OC)c2C1 (centres undefined)	0.001 µM	1 µM	10 µM	40 µM	1 µM	0.09 µM	50 µM
CCCN(CCNS(=O)(=O)c1ccc(C)cc1)C1COc2cccc(OC)c2C1 (stereo in doubt; 15b)	0.002 µM	> 1000 µM	1 µM	> 1000 µM	100 µM	0.1 µM	50 µM
CCCN(CCC)C1COc2cccc(OC)c2C1 (single isomer, unassigned; (+))	0.002 µM	0.51 µM	9.7 µM	9.1 µM	2.3 µM	0.14 µM	> 1000 µM
CCCN(CCCCNC(=O)c1ccccc1OC)C1COc2cccc(OC)c2C1 (centres undefined)	0.001 µM	1 µM	4 µM	0.1 µM	3 µM	0.01 µM	–
CCCN(CCCCNC(=O)c1ccc(F)cc1)C1COc2cccc(OC)c2C1 (centres undefined)	0.0004 µM	3 µM	3 µM	4 µM	2 µM	0.007 µM	20 µM
O=C1CC2(CCCC2)CC(=O)N1CCCCN1CCN(c2ncccn2)CC1 [BUSPIRONE]	–	–	10 µM	10 µM	16 µM	4 µM	27 µM

More lines, in order of falling IC50 [1], values ahead:

IC50 [1]	IC50 [2]	IC50 [3]	IC50 [4]	IC50 [5]	IC50 (D(2) dopamine receptor)	IC50 (D(1A) dopamine receptor)	SMILES
20 µM	30 µM	10 µM	10 µM	2 µM	0.1 µM	40 µM	CCCN(CCC)C1COc2ccc3ccccc3c2C1 (centres undefined)
0.8 µM	> 1000 µM	> 100 µM	> 1000 µM	> 1000 µM	10 µM	> 1000 µM	CCCN(CCN1C(=O)c2ccccc2C1=O)C1COc2cccc(OC)c2C1 (centres undefined)
0.1 µM	3 µM	8 µM	1 µM	4 µM	0.08 µM	40 µM	CCCN(CCCN1C(=O)c2ccccc2C1=O)C1COc2cccc(OC)c2C1 (centres undefined)
0.02 µM	20 µM	5 µM	2 µM	7 µM	0.06 µM	20 µM	CCCN(CCCCNS(=O)(=O)c1ccc(C)cc1)C1COc2cccc(OC)c2C1 (single isomer, unassigned; (-))
0.008 µM	> 1000 µM	10 µM	4 µM	10 µM	0.03 µM	100 µM	CCCN(CCCCN1CCOCC1)C1COc2cccc(OC)c2C1 (centres undefined)
0.008 µM	> 1000 µM	> 1000 µM	50 µM	100 µM	0.5 µM	100 µM	CCCN(CCNS(=O)(=O)c1ccc(C)cc1)C1COc2cccc(OC)c2C1 (single isomer, unassigned; (+))
0.008 µM	10 µM	10 µM	5 µM	3 µM	0.1 µM	50 µM	CCCN(CCCCN1C(=O)C2CCCC2C1=O)C1COc2cccc(OC)c2C1 (single isomer, unassigned; (+))
0.004 µM	10 µM	6 µM	0.4 µM	6 µM	0.04 µM	80 µM	CCCN(CCCCN1C(=O)CC(C)(C)CC1=O)C1COc2cccc(OC)c2C1 (centres undefined)
0.003 µM	2 µM	6 µM	0.5 µM	3 µM	0.03 µM	20 µM	CCCN(CCCNS(=O)(=O)c1ccc(C)cc1)C1COc2cccc(OC)c2C1 (centres undefined)
0.002 µM	50 µM	> 1000 µM	10 µM	5 µM	0.02 µM	100 µM	CCCN(CCCCN1CCCCC1)C1COc2cccc(OC)c2C1 (centres undefined)
0.001 µM	30 µM	3 µM	5 µM	8 µM	0.01 µM	30 µM	CCCN(CCCCN1C(=O)C2CCCC2C1=O)C1COc2cccc(OC)c2C1 (single isomer, unassigned; (-))
0.001 µM	20 µM	3 µM	0.1 µM	5 µM	60 µM	60 µM	CCCN(CCCCCN1C(=O)CC2(CCCC2)CC1=O)C1COc2cccc(OC)c2C1 (centres undefined)
0.001 µM	30 µM	4 µM	20 µM	10 µM	0.008 µM	100 µM	CCCN(CCCCN1C(=O)CC2(CCCC2)CC1=O)C1COc2cccc(O)c2C1 (centres undefined)
